Legend:
Carboplatin = compound: C1CC(C1)(C(=O)[O-])C(=O)[O-].N.N.[Pt+2] [Carboplatin]; details: max 10 µM
Method in brief: (§1)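 In 1536-well plates, cancer cell lines in 7.5 μl DMEM/F12 or RPMI with 10% FBS spent 24 hours at 37°C and 5% CO2 and were then dosed for 72 hours with final DMSO typically 0.2%. Viability was read by CellTiter-Glo 2.0 luminescence and scaled between blank-well and DMSO-well means. The single-agent IC50 was fitted from dose responses using a logistic curve in a non-linear mixed effects model, and that logistic curve had two parameters.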

AZD5363 = compound: C1CN(CCC1(C(=O)N[C@@H](CCO)C2=CC=C(C=C2)Cl)N)C3=NC=NC4=C3C=CN4 [AZD5363]; details: max 10 µM
Method in brief: as §1

AZD1775 = compound: C=CCn1c(=O)c2cnc(Nc3ccc(N4CCN(C)CC4)cc3)nc2n1-c1cccc(C(C)(C)O)n1 [AZD1775]; details: max 3 µM
Method in brief: as §1

Trametinib = compound: CC(=O)Nc1cccc(-n2c(=O)n(C3CC3)c(=O)c3c(Nc4ccc(I)cc4F)n(C)c(=O)c(C)c32)c1 [Trametinib]; details: max 1 µM
Method in brief: as §1

Paclitaxel = compound: CC(=O)O[C@H]1C(=O)[C@@]2(C)[C@H]([C@H](OC(=O)c3ccccc3)[C@]3(O)C[C@H](OC(=O)[C@H](O)[C@@H](NC(=O)c4ccccc4)c4ccccc4)C(C)=C1C3(C)C)[C@]1(OC(C)=O)CO[C@@H]1C[C@@H]2O [Paclitaxel]; details: max 3 µM
Method in brief: as §1

Palbociclib = compound: CC(=O)c1c(C)c2cnc(Nc3ccc(N4CCNCC4)cn3)nc2n(C2CCCC2)c1=O [Palbociclib]; details: max 10 µM
Method in brief: as §1

AZD1390 = compound: CC(C)n1c(=O)n(C)c2cnc3cc(F)c(-c4ccc(OCCCN5CCCCC5)nc4)cc3c21 [AZD1390]; details: max 0.3 µM
Method in brief: as §1

Venetoclax = compound: CC1(C)CCC(CN2CCN(c3ccc(C(=O)NS(=O)(=O)c4ccc(NCC5CCOCC5)c([N+](=O)[O-])c4)c(Oc4cnc5[nH]ccc5c4)c3)CC2)=C(c2ccc(Cl)cc2)C1 [Venetoclax]; details: max 1 µM
Method in brief: as §1

Dasatinib = compound: CC1=C(C(=CC=C1)Cl)NC(=O)C2=CN=C(S2)NC3=CC(=NC(=N3)C)N4CCN(CC4)CCO [Dasatinib]; details: max 2 µM
Method in brief: as §1

SG3199 = compound: CC1=CN2[C@@H](C1)C=NC3=CC(=C(C=C3C2=O)OC)OCCCCCOC4=C(C=C5C(=C4)N=C[C@@H]6CC(=CN6C5=O)C)OC [SG3199]; details: max 0.001 µM
Method in brief: as §1

AZD2811 = compound: CCN(CCO)CCCOc1ccc2c(Nc3cc(CC(=O)Nc4cccc(F)c4)[nH]n3)ncnc2c1 [AZD2811]; details: max 1 µM
Method in brief: as §1

SN-38 = compound: CCc1c2c(nc3ccc(O)cc13)-c1cc3c(c(=O)n1C2)COC(=O)[C@]3(O)CC [SN-38]; details: max 0.3 µM
Method in brief: as §1

AZD0156 = compound: CN(C)CCCOc1ccc(-c2ccc3ncc4c(c3c2)n(C2CCOCC2)c(=O)n4C)cn1 [AZD0156]; details: max 3 µM
Method in brief: as §1

AZD4320 = compound: CN(CC[C@H](CSC1=CC=CC=C1)NC2=C(C=C(C=C2)S(=O)(=O)NC(=O)C3=CC=C(C=C3)N4CCC(CC4)[C@H](C5=CC=CC=C5C6=CC=C(C=C6)Cl)O)S(=O)(=O)C(F)(F)F)CCO [AZD4320]; details: max 1 µM
Method in brief: as §1

Alisertib = compound: COc1cc(Nc2ncc3c(n2)-c2ccc(Cl)cc2C(c2c(F)cccc2OC)=NC3)ccc1C(=O)O [Alisertib]; details: max 10 µM
Method in brief: as §1

Etoposide = compound: COc1cc([C@@H]2c3cc4c(cc3[C@@H](O[C@@H]3O[C@@H]5CO[C@@H](C)O[C@H]5[C@H](O)[C@H]3O)[C@H]3COC(=O)[C@H]23)OCO4)cc(OC)c1O [Etoposide]; details: max 10 µM
Method in brief: as §1

Gefitinib = compound: COc1cc2ncnc(Nc3ccc(F)c(Cl)c3)c2cc1OCCCN1CCOCC1 [Gefitinib]; details: max 10 µM
Method in brief: as §1

Prexasertib = compound: COc1cccc(OCCCN)c1-c1cc(Nc2cnc(C#N)cn2)n[nH]1 [Prexasertib]; details: max 1 µM
Method in brief: as §1

Doxorubicin = compound: COc1cccc2c1C(=O)c1c(O)c3c(c(O)c1C2=O)C[C@@](O)(C(=O)CO)C[C@@H]3O[C@H]1C[C@H](N)[C@H](O)[C@H](C)O1 [Doxorubicin]; details: max 1 µM
Method in brief: as §1

AZD5153 = compound: COc1nnc2ccc(N3CCC(c4ccc(OCCN5CCN(C)C(=O)[C@H]5C)cc4)CC3)nn12 [AZD5153]; details: max 1 µM
Method in brief: as §1

Lapatinib = compound: CS(=O)(=O)CCNCc1ccc(-c2ccc3ncnc(Nc4ccc(OCc5cccc(F)c5)c(Cl)c4)c3c2)o1 [Lapatinib]; details: max 10 µM
Method in brief: as §1

AZD8186 = compound: C[C@@H](Nc1cc(F)cc(F)c1)c1cc(C(=O)N(C)C)cc2c(=O)cc(N3CCOCC3)oc12 [AZD8186]; details: max 10 µM
Method in brief: as §1

Crizotinib = compound: C[C@@H](Oc1cc(-c2cnn(C3CCNCC3)c2)cnc1N)c1c(Cl)ccc(F)c1Cl [Crizotinib]; details: max 10 µM
Method in brief: as §1

Savolitinib = compound: C[C@@H](c1ccc2nccn2c1)n1nnc2ncc(-c3cnn(C)c3)nc21 [Savolitinib]; details: max 1 µM
Method in brief: as §1

AZD6738 = compound: C[C@@H]1COCCN1C2=NC(=NC(=C2)C3(CC3)[S@](=N)(=O)C)C4=C5C=CNC5=NC=C4 [AZD6738]; details: max 10 µM
Method in brief: as §1

AZD5991 = compound: Cc1c2c(nn1C)CSCc1cc(n(C)n1)CSc1cc(c3ccccc3c1)OCCCc1c(C(=O)O)n(C)c3c-2c(Cl)ccc13 [AZD5991]; details: max 1 µM
Method in brief: as §1

AZD7648 = compound: Cc1cc2ncnn2cc1Nc1ncc2c(n1)n(C1CCOCC1)c(=O)n2C [AZD7648]; details: max 10 µM
Method in brief: as §1

Taselisib = compound: Cc1nc(-c2cn3c(n2)-c2ccc(-c4cnn(C(C)(C)C(N)=O)c4)cc2OCC3)n(C(C)C)n1 [Taselisib]; details: max 10 µM
Method in brief: as §1

Selumetinib = compound: Cn1cnc2c(F)c(Nc3ccc(Br)cc3Cl)c(C(=O)NOCCO)cc21 [Selumetinib]; details: max 10 µM
Method in brief: as §1

SRA737 = compound: N#Cc1cnc(Nc2cc(NC[C@H]3CNCCO3)c(C(F)(F)F)cn2)cn1 [SRA737]; details: max 10 µM
Method in brief: as §1

MK-2206 = compound: NC1(c2ccc(-c3nc4ccn5c(=O)[nH]nc5c4cc3-c3ccccc3)cc2)CCC1 [MK-2206]; details: max 10 µM
Method in brief: as §1

Gemcitabine = compound: Nc1ccn([C@@H]2O[C@H](CO)[C@@H](O)C2(F)F)c(=O)n1 [Gemcitabine]; details: max 0.3 µM
Method in brief: as §1

[1] = compound: O=C(Nc1ccc2[nH]nc(-c3ccncc3)c2c1)[C@@H]1CCN(CC(=O)N2CCN(c3ccc(-c4ncccn4)cc3)CC2)C1; details: max 5 µM
Method in brief: as §1

Olaparib = compound: O=C(c1cc(Cc2n[nH]c(=O)c3ccccc23)ccc1F)N1CCN(C(=O)C2CC2)CC1 [Olaparib]; details: max 10 µM
Method in brief: as §1

5-Fluorouracil = compound: O=c1[nH]cc(F)c(=O)[nH]1 [5-Fluorouracil]; details: max 20 µM
Method in brief: as §1

| Cell Line | IC50, cell viability 72 h (Carboplatin) | IC50, cell viability 72 h (AZD5363) | IC50, cell viability 72 h (AZD1775) | IC50, cell viability 72 h (Trametinib) | IC50, cell viability 72 h (Paclitaxel) | IC50, cell viability 72 h (Palbociclib) | IC50, cell viability 72 h (AZD1390) | IC50, cell viability 72 h (Venetoclax) | IC50, cell viability 72 h (Dasatinib) | IC50, cell viability 72 h (SG3199) | IC50, cell viability 72 h (AZD2811) | IC50, cell viability 72 h (SN-38) | IC50, cell viability 72 h (AZD0156) | IC50, cell viability 72 h (AZD4320) | IC50, cell viability 72 h (Alisertib) | IC50, cell viability 72 h (Etoposide) | IC50, cell viability 72 h (Gefitinib) | IC50, cell viability 72 h (Prexasertib) | IC50, cell viability 72 h (Doxorubicin) | IC50, cell viability 72 h (AZD5153) | IC50, cell viability 72 h (Lapatinib) | IC50, cell viability 72 h (AZD8186) | IC50, cell viability 72 h (Crizotinib) | IC50, cell viability 72 h (Savolitinib) | IC50, cell viability 72 h (AZD6738) | IC50, cell viability 72 h (AZD5991) | IC50, cell viability 72 h (AZD7648) | IC50, cell viability 72 h (Taselisib) | IC50, cell viability 72 h (Selumetinib) | IC50, cell viability 72 h (SRA737) | IC50, cell viability 72 h (MK-2206) | IC50, cell viability 72 h (Gemcitabine) | IC50, cell viability 72 h [1] | IC50, cell viability 72 h (Olaparib) | IC50, cell viability 72 h (5-Fluorouracil) |
| --- | --- | --- | --- | --- | --- | --- | --- | --- | --- | --- | --- | --- | --- | --- | --- | --- | --- | --- | --- | --- | --- | --- | --- | --- | --- | --- | --- | --- | --- | --- | --- | --- | --- | --- | --- |
| A375 (Melanoma) | > 10000 nM | > 10000 nM | 813 nM | 12.6 nM | 42 nM | > 10000 nM | > 300 nM | > 1000 nM | > 2000 nM | > 1 nM | > 1000 nM | 7.4 nM | > 3000 nM | > 1000 nM | 8150 nM | 2610 nM | > 10000 nM | 210 nM | 265 nM | > 1000 nM | > 10000 nM | > 10000 nM | > 10000 nM | > 1000 nM | 9240 nM | > 1000 nM | > 10000 nM | > 10000 nM | 693 nM | > 10000 nM | > 10000 nM | 9.74 nM | 538 nM | > 10000 nM | > 20000 nM |
| BC-1 (B-Cell Non-Hodgkin's Lymphoma) | > 10000 nM | 4400 nM | 321 nM | > 1000 nM | 12.1 nM | 342 nM | > 300 nM | > 1000 nM | > 2000 nM | > 1 nM | 199 nM | 5.32 nM | 2420 nM | > 1000 nM | 65.3 nM | 770 nM | 9560 nM | 13 nM | 50 nM | 17.5 nM | 8740 nM | > 10000 nM | 1690 nM | > 1000 nM | 2950 nM | 87.2 nM | > 10000 nM | > 10000 nM | > 10000 nM | 2700 nM | 4100 nM | 15.4 nM | > 5000 nM | > 10000 nM | 17200 nM |
| C32 (Melanoma) | > 10000 nM | > 10000 nM | > 3000 nM | 4.11 nM | 346 nM | > 10000 nM | > 300 nM | > 1000 nM | > 2000 nM | > 1 nM | > 1000 nM | 61.7 nM | > 3000 nM | > 1000 nM | > 10000 nM | > 10000 nM | > 10000 nM | 52.7 nM | > 1000 nM | > 1000 nM | > 10000 nM | > 10000 nM | > 10000 nM | > 1000 nM | 8160 nM | > 1000 nM | > 10000 nM | > 10000 nM | 323 nM | > 10000 nM | > 10000 nM | 54.1 nM | 174 nM | > 10000 nM | > 20000 nM |
| CAL-85-1 (Breast Carcinoma) | > 10000 nM | > 10000 nM | 2040 nM | 351 nM | 66.7 nM | > 10000 nM | > 300 nM | > 1000 nM | 1210 nM | > 1 nM | > 1000 nM | 96.5 nM | > 3000 nM | > 1000 nM | > 10000 nM | > 10000 nM | > 10000 nM | > 1000 nM | > 1000 nM | 534 nM | > 10000 nM | > 10000 nM | > 10000 nM | > 1000 nM | > 10000 nM | > 1000 nM | > 10000 nM | 6290 nM | > 10000 nM | > 10000 nM | > 10000 nM | 246 nM | > 5000 nM | > 10000 nM | > 20000 nM |
| COR-L105 (Lung Adenocarcinoma) | > 10000 nM | > 10000 nM | 2080 nM | 244 nM | > 3000 nM | > 10000 nM | > 300 nM | > 1000 nM | > 2000 nM | > 1 nM | > 1000 nM | > 300 nM | > 3000 nM | > 1000 nM | > 10000 nM | > 10000 nM | 2490 nM | > 1000 nM | > 1000 nM | > 1000 nM | 6660 nM | > 10000 nM | > 10000 nM | > 1000 nM | > 10000 nM | > 1000 nM | > 10000 nM | 7360 nM | > 10000 nM | > 10000 nM | > 10000 nM | > 300 nM | > 5000 nM | > 10000 nM | > 20000 nM |
